Experimental data as given in patent US10195156B2, “Compounds and compositions for intracellular delivery of agents” (ModernaTX, Inc., priority 2015, dated 2019).

Legend:
[1] = Particle size and polydispersity index of nanoparticle compositions (Zetasizer Nano ZS); format: physicochemical; conditions: for particle size, rank within the named table (in words): comparison amongst compositions
How it was run: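 Zetasizer Nano ZS; samples in 1×PBS; read-out: particle size plus polydispersity index.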

IL-6 = experiment: Cytokine production induced by sample formulations: IL-6; format: in vivo; conditions: mice, i.v., 0.5 mpk, 6 hours; for IL-6: in pg/mL (unit assumed)
How it was run: (§1)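 Cytokine levels were quantified at 6 hours in mice given the nanoparticle compositions i.v. at 0.5 mpk. MC3 standard formulation and PBS served as comparators.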

[2] = system: modified luciferase expression; experiment: Expression of Luc in different organs (liver, lung, spleen, femur) 6 hours after intravenous administration; format: in vivo; conditions: i.v., 0.5 mpk
Description: The efficacy of the nanoparticle compositions presented in Tables 1, 1a, 17-1, 19-1, 20-1 and 21-1 was further evaluated by measuring the expression of modified luciferase in the liver, lung, spleen, and femur upon administration of a given composition. Formulations were administered intravenously to mice (n=3) at a dosage of 0.5 mpk and bioluminescence measured after 6 hours. The standard MC3 formulation and a PBS control were also tested.

IP-10 = experiment: Cytokine production induced by sample formulations: IP-10; format: in vivo; conditions: mice, i.v., 0.5 mpk, 6 hours; for IP-10: in pg/mL (unit assumed)
How it was run: as §1

[3] = system: luciferase (Luc) mRNA expression; experiment: Expression of Luc induced by sample formulations, whole-body bioluminescence after intravenous administration; format: in vivo; conditions: mice, i.v., 0.5 mg/kg
How it was run: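 Read-out is whole-body bioluminescence at 3, 6 and 24 h after a single intravenous dose of 0.5 mg/kg Luc mRNA in nanoparticle formulations. Groups of n=6 mice; PBS and standard MC3 formulation as references.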

[4] = pKa of nanoparticle compositions; format: physicochemical
[5] = Encapsulation efficiency of RNA (QUANT-IT RIBOGREEN RNA assay); format: physicochemical; conditions: for encapsulation efficiency, rank within the named table (in words): comparison amongst compositions
How it was run: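 RiboGreen fluorescence (ex ~480, em ~520 nm) measured after 15 min at 37 °C on samples at ~5 μg/mL in TE, pH 7.5, ± 2% Triton X-100 solution. After blank subtraction, free RNA is given as intact-sample signal divided by disrupted-sample signal.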

[6] = Table 20-1, rows without footnote mark
[7] = Table 1, rows without footnote mark
[8] = Table 1, rows without footnote mark (lipid:DOPE:cholesterol:PEG-DMG 40:20:38.5:1.5, Luc mRNA; MC3 standard formulation)
[9] = Table 1, * lipid:DSPC:Chol:PEG-DMG 50:10:38.5:1.5

CCCCCCCCCCCCCCN(CCO)CCN(CCCCCCCCCCCCCC)CCCCCCCCCCCCCC [Compound 20-12, 2-((2-(Ditetradecylamino)ethyl)(tetradecyl)amino)ethan-1-ol]
PDI [1, 6]: 0.217 | Size (nm) [1, 6]: 147.1 nm | particle size, rank within the named table (in words) [1]: largest particles | IL-6 (IL-6; Table 20-4, formula (20-I)): 445.7 | Total Flux Femur ([2]; Table 20-3, mice): 1.37E+06 | Total Flux Liver ([2]; Table 20-3, mice): 3.08E+08 | Total Flux Lung ([2]; Table 20-3, mice): 3.58E+06 | Total Flux Spleen ([2]; Table 20-3, mice): 6.15E+07 | IP-10 (IP-10; Table 20-4, formula (20-I)): 3864.5 | Total Flux 3 hours ([3]; Table 20-2): 1.57E+09 | Total Flux 6 hours ([3]; Table 20-2): 1.84E+09 | Total Flux 24 hours ([3]; Table 20-2): 1.24E+08 | pKa [4, 6]: 6.58 | EE (%) [5, 6]: 82.3%

CCCCCCCCCCCCCCN(CCO)CCN(CCCCCCCCCCCC)CCCCCCCCCCCC [Compound 20-24, 2-((2-(Didodecylamino)ethyl)(tetradecyl)amino)ethan-1-ol]
PDI [1, 6]: 0.038 | Size (nm) [1, 6]: 90.6 nm | IL-6 (IL-6; Table 20-4, formula (20-I)): 67.1 | Total Flux Liver ([2]; Table 20-3, mice): 4.05E+07 | Total Flux Lung ([2]; Table 20-3, mice): 1.08E+05 | Total Flux Spleen ([2]; Table 20-3, mice): 1.11E+06 | IP-10 (IP-10; Table 20-4, formula (20-I)): 1678.6 | Total Flux 3 hours ([3]; Table 20-2): 7.47E+08 | Total Flux 6 hours ([3]; Table 20-2): 1.64E+08 | Total Flux 24 hours ([3]; Table 20-2): 9.72E+06 | pKa [4, 6]: 6.06 | EE (%) [5, 6]: 96.9%

CCCCCCCCCCCCN(CCCO)CCN(CCCCCCCCCCCC)CCCCCCCCCCCC [Compound 20-21, 3-((2-(Didodecylamino)ethyl)(dodecyl)amino)propan-1-ol]
PDI [1, 6]: 0.238 | Size (nm) [1, 6]: 78.6 nm | IL-6 (IL-6; Table 20-4, formula (20-I)): 68.4 | Total Flux Liver ([2]; Table 20-3, mice): 1.27E+08 | Total Flux Lung ([2]; Table 20-3, mice): 1.98E+05 | Total Flux Spleen ([2]; Table 20-3, mice): 2.20E+06 | IP-10 (IP-10; Table 20-4, formula (20-I)): 900.4 | Total Flux 3 hours ([3]; Table 20-2): 1.43E+09 | Total Flux 6 hours ([3]; Table 20-2): 1.02E+09 | Total Flux 24 hours ([3]; Table 20-2): 1.13E+08 | pKa [4, 6]: 5.78 | EE (%) [5, 6]: 84.7%

CCCCC/C=C\C/C=C\CCCCCCCCN(CCO)CCCCCCCCCCCCCCCCCC [Compound 17-6, 2-(((9Z,12Z)—Octadeca-9,12-dien-1-yl)(octadecyl)amino)ethan-1-ol]
PDI ([1]; Table 17-1): 0.117 | Size (nm) ([1]; Table 17-1): 80.2 nm | IL-6 (IL-6; Table 17-4): 25.0 | Total Flux Liver ([2]; Table 17-3, mice): 2.16E+07 | Total Flux Lung ([2]; Table 17-3, mice): 1.54E+05 | Total Flux Spleen ([2]; Table 17-3, mice): 9.06E+05 | IP-10 (IP-10; Table 17-4): 134 | Total Flux 3 hours ([3]; Table 17-2): 6.27E+07 | Total Flux 6 hours ([3]; Table 17-2): 1.19E+08 | Total Flux 24 hours ([3]; Table 17-2): 1.27E+07 | pKa ([4]; Table 17-1): 6.73 | EE (%) ([5]; Table 17-1): 97.3% | encapsulation efficiency, rank within the named table (in words) [5]: comparable to that for MC3

CCCCC/C=C\C/C=C\CCCCCCCCN(CCCCCCCC/C=C\C/C=C\CCCCC)CCN1CCN(CCCCCCCCCCCC)CC1 [Compound 19-6, (9Z,12Z)—N-(2-(4-Dodecylpiperazin-1-yl)ethyl)-N-((9Z,12Z)-octadeca-9,12-dien-1-yl)octadeca-9,12-dien-1-amine]
PDI ([1]; Table 19-1): 0.088 | Size (nm) ([1]; Table 19-1): 137.7 nm | particle size, rank within the named table (in words) [1]: largest particles | IL-6 (IL-6; Table 19-4): 7571 | IL-6 induction, rank within the named table (in words) (IL-6): highest IL-6 expression | Total Flux Liver ([2]; Table 19-3, mice): 3.27E+06 | Total Flux Lung ([2]; Table 19-3, mice): 1.81E+05 | Total Flux Spleen ([2]; Table 19-3, mice): 3.47E+06 | IP-10 (IP-10; Table 19-4): 433 | IP-10 induction, rank or comparison with IL-6 (in words) (IP-10): highest IP-10 expression | Total Flux 3 hours ([3]; Table 19-2): 1.07E+07 | Total Flux 6 hours ([3]; Table 19-2): 1.27E+07 | Total Flux 24 hours ([3]; Table 19-2): 1.29E+06 | total flux / Luc expression, rank within the named table (in words) ([3]; each time point): next highest flux | pKa ([4]; Table 19-1): 5.89 | EE (%) ([5]; Table 19-1): 16.9% | encapsulation efficiency, rank within the named table (in words) [5]: lowest encapsulation efficiency

CCCCCCCCCCCCCCN(CCCCCCCCCCCCCC)CCN(CCCCCCCCCCCCCC)CCN1CCN(CCN(CCCCCCCCCCCC)CCCCCCCCCCCC)CC1 [Compound 31, N^1-(2-(4-(2-(Didodecylamino)ethyl)piperazin-1-yl)ethyl)-N^1,N^2,N^2-tritetradecylethane-1,2-diamine]
PDI [1, 7]: 0.130 | Size (nm) [1, 8]: 87.9 nm | IL-6 (IL-6; Table 4): 188 | Total Flux Femur ([2]; Table 3, mice): 9.89E+05 | Total Flux Liver ([2]; Table 3, mice): 1.54E+09 | Total Flux Lung ([2]; Table 3, mice): 9.81E+06 | Total Flux Spleen ([2]; Table 3, mice): 1.28E+07 | IP-10 (IP-10; Table 4): 2513 | Total Flux 3 hours ([3]; Table 2): 1.43E+10 | Total Flux 6 hours ([3]; Table 2): 1.42E+10 | Total Flux 24 hours ([3]; Table 2): 3.07E+08 | pKa [4, 7]: 6.31 | EE (%) [5, 7]: 77.5%

CCCCCCCCCCCCN(CCCCCCCCCCCC)CCN(CCO)CCCCCC [Compound 20-15, 2-((2-(Didodecylamino)ethyl)(hexyl)amino)ethan-1-ol]
PDI [1, 6]: 0.118 | Size (nm) [1, 6]: 67.4 nm | particle size, rank within the named table (in words) [1]: smallest particles | IL-6 (IL-6; Table 20-4, formula (20-I)): 49.4 | Total Flux Liver ([2]; Table 20-3, mice): 6.74E+07 | Total Flux Lung ([2]; Table 20-3, mice): 5.56E+05 | Total Flux Spleen ([2]; Table 20-3, mice): 1.86E+06 | IP-10 (IP-10; Table 20-4, formula (20-I)): 136.3 | Total Flux 3 hours ([3]; Table 20-2): 3.36E+08 | Total Flux 6 hours ([3]; Table 20-2): 2.25E+08 | Total Flux 24 hours ([3]; Table 20-2): 2.08E+07 | pKa [4, 6]: 6.48 | EE (%) [5, 6]: 97.4%

CCCCC/C=C\C/C=C\CCCCCCCCN(CCO)CCN(CCCCCCCCCCCC)CCCCCCCCCCCC [Compound 20-25, 2-((2-(Didodecylamino)ethyl)((9Z,12Z)-octadeca-9,12-dien-1-yl)amino)ethan-1-ol]
PDI [1, 6]: 0.171 | Size (nm) [1, 6]: 71.7 nm | IL-6 (IL-6; Table 20-4, formula (20-I)): 20.6 | Total Flux Femur ([2]; Table 20-3, mice): 3.13E+05 | Total Flux Liver ([2]; Table 20-3, mice): 1.88E+08 | Total Flux Lung ([2]; Table 20-3, mice): 7.85E+05 | Total Flux Spleen ([2]; Table 20-3, mice): 4.16E+06 | IP-10 (IP-10; Table 20-4, formula (20-I)): 188.0 | Total Flux 3 hours ([3]; Table 20-2): 1.16E+09 | Total Flux 6 hours ([3]; Table 20-2): 1.78E+09 | Total Flux 24 hours ([3]; Table 20-2): 3.82E+07 | pKa [4, 6]: 6.23 | EE (%) [5, 6]: 98.4%

CCCCC/C=C\C/C=C\CCCCCCCCN(CCCCCCCC/C=C\C/C=C\CCCCC)CCN(CCCCCCCC/C=C\C/C=C\CCCCC)CCN1CCN(CCN(CCCCCCCCCCCC)CCCCCCCCCCCC)CC1 [Compound 34, N^1-(2-(4-(2-(Didodecylamino)ethyl)piperazin-1-yl)ethyl)-N^1,N^2,N^2-tri((9Z,12Z)-octadeca-9,12-dien-1-yl)ethane-1,2-diamine]
Size (nm) ([1]; Table 1, * formulated with lipid:DSPC:Chol:PEG-DMG 50:10:38.5:1.5): 66.0 nm | PDI [1, 9]: 0.077 | particle size, rank within the named table (in words) [1]: smallest particles | IL-6 (IL-6; Table 4): 28 | Total Flux Liver ([2]; Table 3, mice): 2.79E+06 | Total Flux Lung ([2]; Table 3, mice): 5.63E+04 | Total Flux Spleen ([2]; Table 3, mice): 1.22E+06 | IP-10 (IP-10; Table 4): 159 | Total Flux 3 hours ([3]; Table 2): 7.77E+06 | Total Flux 6 hours ([3]; Table 2): 1.88E+07 | Total Flux 24 hours ([3]; Table 2): 2.19E+06 | pKa [4, 9]: 5.74 | EE (%) [5, 9]: 98.1%

CCCCCCCC/C=C\CCCCCCCCN(CCCCCCCC/C=C\CCCCCCCC)CCN1CCN(CCN(CCCCCCCCCCCC)CCN(CCCCCCCCCCCC)CCCCCCCCCCCC)CC1 [Compound 28, N^1-(2-(4-(2-(Di((Z)-octadec-9-en-1-yl)amino)ethyl)piperazin-1-yl)ethyl)-N^1,N^2,N^2-tridodecylethane-1,2-diamine]
PDI [1, 7]: 0.099 | Size (nm) [1, 8]: 87.4 nm | IL-6 (IL-6; Table 4): 73 | Total Flux Femur ([2]; Table 3, mice): 1.16E+06 | Total Flux Liver ([2]; Table 3, mice): 8.10E+08 | Total Flux Lung ([2]; Table 3, mice): 5.73E+06 | Total Flux Spleen ([2]; Table 3, mice): 5.67E+06 | IP-10 (IP-10; Table 4): 5364 | Total Flux 3 hours ([3]; Table 2): 6.18E+09 | Total Flux 6 hours ([3]; Table 2): 7.28E+09 | Total Flux 24 hours ([3]; Table 2): 4.02E+08 | pKa [4, 7]: 6.04 | EE (%) [5, 7]: 80.2%
